This is an account of results in PubChem BioAssay AID1645848.

Converted amounts (≈) assume the structure as drawn. A value given as a limit tells only on which side of the number the result lay.

The conditions of this series: buffer; pH 7.4; 6.0 h; 150.0 µM.

As to `Nc1nc2c(s1)C(c1ccc(F)c(F)c1)CC(=O)N2` (configuration not stated), the kinetic solubility (as a rule, the concentration staying in solution when a stock, usually in DMSO, is diluted into the medium) was above 42 µg/mL.
To `CNc1nc(-c2ccc3c(N)n[nH]c3c2)cc(N2C[C@@H](C(=O)NC3CCCCC3)CC[C@H]2C)n1` belongs 15.2 µg/mL (≈ 32.9 µM); to `O=C(Nc1ccc2c(N3CCCCC3)ncnc2c1)c1cc(F)cc(F)c1`, below 1 µg/mL.
To `CNc1nc(C#N)c(-c2cccc3ccccc23)o1` belongs below 1 µg/mL.
`CNc1oc(-c2ccc(-c3ccccc3)cc2)nc1C#N` returned a kinetic solubility below 1 µg/mL.
Consider `Cc1cc(C)cc(C(=O)Nc2ccc3c(N4CCCC4)ncnc3c2)c1`, for which the kinetic solubility is below 1 µg/mL.
In turn, `NC(=O)C1CCN(c2nc(-c3cccs3)cs2)CC1` came in with a solubility (kinetic) above 43 µg/mL.
The same measure for `O=S(=O)(Nc1nccs1)c1ccc(NCc2ccc(Br)cc2O)cc1`: below 1 µg/mL; for `CC(=O)c1c(C)[nH]c(C(=O)Nc2ccc(Cl)cc2)c1C`: 1.96 µg/mL (≈ 6.72 µM).
The same measure for `Cc1noc(C)c1[S+](=O)([O-])N1CCC2(CC1)CC(c1cccc(C(F)(F)F)c1)=NO2`: below 1 µg/mL; for `COc1ccc(CN2C(=O)[C@@H]3C[C@@H](CN3Cc3cccs3)Oc3ccccc32)cc1`: 2.52 µg/mL (≈ 5.99 µM).
As to `NC(=O)C1CCN(c2nc(-c3ccc(OC(F)(F)F)cc3)cs2)CC1`, the kinetic solubility was below 1 µg/mL.
To `CCOc1ccc(-c2csc(N3CCC(C(N)=O)CC3)n2)cc1` belongs 11 µg/mL (≈ 33.2 µM); to `O=C(NC[C@H]1Cn2c(-c3ccc(Cl)cc3)cnc2CO1)C1CCCC1`, above 36 µg/mL; to `O=C(c1csnn1)N1CCC2(CCCN(C(c3ccccc3)c3ccccc3)C2)CC1`, below 1 µg/mL.
The same measure for `O=C(Nc1ccc(-c2ccccc2)cc1)[C@H](Cc1ccc(O[S+](=O)([O-])c2cccc3cnccc23)cc1)N[S+](=O)([O-])c1cccc2cnccc12`: below 1 µg/mL.
The compound `c1cc(-c2cc(-c3ccncc3)c3cncn3c2)c2[nH]ncc2c1` showed a kinetic solubility of 2.43 µg/mL (≈ 7.8 µM).
To `O=c1cc(/C=C/c2c(F)cccc2Cl)[nH]c2ccccc12` belongs 1.73 µg/mL (≈ 5.77 µM); to `O=C(NC1CCCc2c1cnn2-c1ccc(F)cc1F)c1ccccc1` (configuration not stated), 4.29 µg/mL (≈ 12.1 µM); to `O=C(Nc1ccc2oc(-c3cccnc3)nc2c1)c1ccc(-c2ccccc2)o1`, below 1 µg/mL.
To `Cc1ccnc(NC(=S)N2CCN(c3cccc(Cl)c3Cl)CC2)c1` belongs 2.51 µg/mL (≈ 6.58 µM).
On to `Cc1ccc(S(=O)(=O)Nc2ccccc2C(=O)Nc2ccc(-c3ccccc3)cc2)cc1`, for which the kinetic solubility is below 1 µg/mL.
Compound `O=C1CCCC2=C1C(c1[nH]ncc1Cl)N=C(Nc1nc3ccc(F)cc3o1)N2` (configuration not stated) registered a kinetic solubility of 1.53 µg/mL (≈ 3.81 µM).
The same measure for `Cc1nc2ccc(Nc3nc(-c4ccncc4)nc4ccccc34)cc2s1`: below 1 µg/mL; for `NC(=O)C1CCN(c2nc(-c3cccc(Cl)c3)cs2)CC1`: 10.6 µg/mL (≈ 32.9 µM).
The compound `CCOc1ccc(CCNC(=O)c2cc3sccc3n2C)cc1OCC` displayed a solubility (kinetic) of 8.05 µg/mL (≈ 21.6 µM).
Consider `O=C(Nc1cccc(C(F)(F)F)c1)C1=CCN(Cc2ccc(F)cc2)CC1`, for which the solubility (kinetic) was 26.2 µg/mL (≈ 69.2 µM).
`COc1ccc2c(c1)N(C[C@H](C)CN(C)C)c1ccccc1S2` registered a kinetic solubility above 48 µg/mL.
Turning to `COc1cc(C(=O)NC2CCCc3c2[nH]c2c(Cl)cccc32)cc(OC)c1OC` (configuration not stated), the kinetic solubility was below 1 µg/mL.
`CC1CCc2ccc(F)cc2N1S(=O)(=O)c1cccs1` (configuration not stated) showed a kinetic solubility of 3.12 µg/mL (≈ 10 µM).
The same measure for `CCOc1cc(F)c(CCNC(=O)c2cc3sccc3n2Cc2ccccc2)cc1OCC`: below 1 µg/mL; for `COC(=O)[C@H](Cc1ccc(O[S+](=O)([O-])c2cccc3cnccc23)cc1)N[S+](=O)([O-])c1ccc2cnccc2c1`: 3.21 µg/mL (≈ 5.55 µM); for `Fc1cccc(Nc2nc(-c3ccncc3)nc3ccccc23)c1F`: below 1 µg/mL.
On to `COC(=O)[C@H](NC(=O)c1cc(-c2ccccc2)nc2ccccc12)c1ccccc1`, for which the kinetic solubility is below 1 µg/mL.
In turn, `CC1(C)CC2CC(C)(CN2S(=O)(=O)c2ccc(C(=O)Nc3cccc(S(=O)(=O)N4CCOCC4)c3)cc2)C1` (configuration not stated) registered a kinetic solubility below 1 µg/mL.
Turning to `O=C(NCCCO)c1ccc(-c2ncc3cnc(-c4cccc(F)c4)cn23)cc1`, the solubility (kinetic) was above 86 µg/mL.
Turning to `O=C(O)c1ccc(-c2c[nH]c3ncc(-c4ccccc4)cc23)cc1C1CCCC1`, the solubility (kinetic) is 7.57 µg/mL (≈ 19.8 µM).
`OCc1cccc(-c2cc(-c3cccnc3)c3cncn3c2)c1` had a solubility (kinetic) of 18.5 µg/mL (≈ 61.4 µM). This solubility kinetic lies about 2.4-fold higher than the previous one.
To `O=S(=O)(Nc1nccs1)c1ccc(NCc2ccc(Cl)cc2O)cc1` belongs 1.32 µg/mL (≈ 3.34 µM).
To `COc1ccc(NS(=O)(=O)c2ccc(C)cc2)c(C(=O)Nc2nc(-c3ccccc3)cs2)c1` belongs below 1 µg/mL; to `COC(=O)CNC(=O)c1nc(-c2ccccc2OC)c2ccccn12`, above 60 µg/mL; to `CCOc1ccc(CCNC(=O)c2ccc(C(=O)c3ccccc3)cc2)cc1OCC`, below 1 µg/mL.
To `COc1ccc(-n2c(C)cc(-c3nnc4n3CCCCC4)c2C)cc1` belongs 31.9 µg/mL (≈ 94.8 µM); to `Cc1ccc(S(=O)(=O)Nc2cnccc2C(=O)Nc2nc(-c3ccc(-c4ccccc4)cc3)cs2)cc1`, 0.487 µg/mL (≈ 0.925 µM); to `Cc1ccc(S(=O)(=O)Nc2ccccc2C(=O)Nc2ncc(-c3ccccc3)s2)cc1`, below 1 µg/mL.
In turn, `COC(=O)c1ccc2c(c1)nc1n2[C@@H](CNC(C)=O)COC1` had a kinetic solubility above 30 µg/mL.
The compound `Cc1ccc2oc(NC3=NC4(CCCC4)C4=C(CCCC4=O)N3)nc2c1` showed a solubility (kinetic) below 1 µg/mL.
The same measure for `c1c[nH]c(C2CCN(c3ncc(-c4ccc5c(c4)OCCCO5)s3)CC2)n1`: 4.09 µg/mL (≈ 10.7 µM); for `CC1CCC(n2c3cnccc3c3cnc(Nc4ccc5c(n4)CCN(C(=O)CO)C5)nc32)CC1` (configuration not stated): below 1 µg/mL; for `CC[C@H](NC(=O)c1c(O)c(-c2ccccc2)nc2ccccc12)c1ccccc1`: 31.7 µg/mL (≈ 82.8 µM).
Regarding `Fc1ccc(Oc2nc(-c3ccncc3)nc3ccccc23)cc1F`, the solubility (kinetic) was 6.95 µg/mL (≈ 20.7 µM). This solubility kinetic lies about 4.6-fold lower than the previous one.
On to `CCN1CCN(c2ccc(Nc3ccc(-c4ccc(C(N)=O)cc4)n4ncnc34)cc2)CC1`, for which the solubility (kinetic) was above 65 µg/mL.
To `COc1cccc(C(=O)Nc2nnc(S(=O)(=O)N3CCOCC3)s2)c1` belongs above 57 µg/mL; to `O=C1CCCC2=C1C(c1[nH]ncc1Cl)N=C(Nc1nc3cccc(Cl)c3o1)N2` (configuration not stated), below 1 µg/mL.
For the compound `COc1cc(Nc2nc(-c3ccncc3)nc3ccccc23)ccc1NS(C)(=O)=O`, the solubility (kinetic) was below 1 µg/mL.
`c1ccc(-c2ccc(CNc3nc(-c4ccccn4)nnc3-c3ccccc3)cc2)cc1` showed a solubility (kinetic) below 1 µg/mL.
The same measure for `Cc1c(C)n(Cc2ccc(-c3ccccc3C(=O)O)cc2)c2ccc(C(=O)N[C@@H](C)c3ccc([N+](=O)[O-])cc3)cc12`: 44 µg/mL (≈ 80.3 µM).
To `CCc1ccc(C2Sc3ccccc3NC3=C2C(=O)c2ccccc23)cc1` (configuration not stated) belongs below 1 µg/mL; to `COc1ccc(-c2ccc3ncc(Nc4ccc(C(N)=O)cc4)n3n2)cc1OC`, 27.4 µg/mL (≈ 70.4 µM); to `COc1cc(-c2c(C#N)c(N)nc3c2c(C)nn3-c2ccc(F)cc2)ccc1O`, below 1 µg/mL.
`COc1ccc(-c2ccc3nc(-c4cc(F)ccc4F)oc3c2)c(OC)c1OC` showed a solubility (kinetic) below 1 µg/mL.
With `CCS(=O)(=O)c1nc(-c2ccc(Cl)cc2)cc(C(F)(F)F)n1`, the solubility (kinetic) worked out at 8.53 µg/mL (≈ 24.3 µM).
The same measure for `CCOC(=O)N1CCN(Cc2nc3cc(NC(=O)CC(C)C)ccc3n2C(C)C)CC1`: above 63 µg/mL; for `COc1ccc(-c2nc3sc(CCNC(=O)C(C)(C)C)c(C)n3n2)cc1`: above 55 µg/mL.
To `Cc1cc(C(=O)Nc2nnc(C3CCCCC3)s2)cs1` belongs below 1 µg/mL; to `CN(C)c1cccc(-c2cnc(N3CCC(c4ncc[nH]4)CC3)s2)c1`, 32.7 µg/mL (≈ 92.5 µM).
In turn, `Nc1ccc(CNc2ccc([S+](=O)([O-])Nc3nccs3)cc2)c(O)c1` showed a kinetic solubility of 45.7 µg/mL (≈ 121 µM).
The compound `Cc1cc(Nc2ccc(Br)c(C)c2)n2nc(C)nc2n1` displayed a kinetic solubility of 30.9 µg/mL (≈ 93 µM).
Regarding `Cc1cc(-c2nnc3n2CCCCC3)c(C)n1-c1ccncc1`, the kinetic solubility worked out at 36 µg/mL (≈ 117 µM). This solubility kinetic and that of the compound before are within 1.5-fold of each other.
The same measure for `Cc1ccc(-n2ncc(C(=O)NCCN3CCC(Cc4ccccc4)CC3)c2C2CCN(C(=O)OC(C)(C)C)CC2)cc1`: 23.2 µg/mL (≈ 39.6 µM); for `O=C(Nc1ncc([S+](=O)([O-])N2CCOCC2)s1)c1cccc(Br)c1`: 2.94 µg/mL (≈ 6.79 µM).
`Fc1ccc(Nc2nc(-n3ccnc3)nc3ccccc23)cc1F` yielded a kinetic solubility below 1 µg/mL.
